The source of these data is ChEMBL document CHEMBL1134187, “Synthesis and antitumor evaluation of novel monoindolyl-4-trifluoromethylpyridines and bisindolyl-4-trifluoromethylpyridines” (Bioorg Med Chem Lett, 2001).

Some results are limits rather than exact numbers.

Usually IC50 stands for the concentration that gives 50% inhibition. A low value points to greater potency in that assay. In general, inhibition refers to the drop in the measured response relative to a control, in per cent.

Experiment [1] concerns A549. The experiment is described as follows: Concentration for in vitro cytotoxicity against A-549 human lung tumor cells. Format: functional, cell-based.
Experiment [2] has as its system A549. As to the kind of experiment: Inhibition of proliferation of A549 cells at concentration of 0.1 uM was determined. The class given is functional. The conditions noted are these: Homo sapiens.
The test system of experiment [3] is A549. The experiment is described as follows: Inhibition of proliferation of A549 cells at concentration of 100 uM was determined. The following applies: Homo sapiens. The class given is functional.
The subject of experiment [4] is A549. The experiment is described as follows: Inhibition of proliferation of A549 cells at concentration of 10 uM was determined. The conditions noted are these: Homo sapiens. Format: functional.
Experiment [5] deals with A549. The experiment is described as follows: Inhibition of proliferation of A549 cells at concentration of 1 uM was determined. Format: functional. The conditions noted are these: Homo sapiens.
The subject of experiment [6] is P388. The experiment is described as follows: Concentration for in vitro cytotoxicity against murine P388 leukemia cells. Format: functional, cell-based. The conditions noted are these: Mus musculus.
For experiment [7], the system named is P388. The experiment is described as follows: Inhibition of proliferation of […] at concentration of 100 uM was determined. The conditions noted are these: Mus musculus. Format: functional.
Experiment [8] relates to P388. The experiment is described as follows: Inhibition of proliferation of […] at concentration of 10 uM was determined. Format: functional. The following applies: Mus musculus.
Experiment [9] concerns P388. As to the kind of experiment: Inhibition of proliferation of […] at concentration of 1 uM was determined. Format: functional. The conditions noted are these: Mus musculus.
For experiment [10], the system named is P388. The experiment is described as follows: Inhibition of proliferation of […] at concentration of 0.1 uM was determined. Format: functional. The following applies: Mus musculus.

Regarding `COc1ccc2c(-c3cc(C(F)(F)F)cc(-c4cn(S(=O)(=O)c5ccc(C)cc5)c5cc(OC)ccc45)n3)cn(S(=O)(=O)c3ccc(C)cc3)c2c1`, the half-inhibitory concentration (IC50) was 1.7 µM in the experiment with A549 [1] and 4.3 µM with P388 [6]. Moreover, testing at 0.1 µM in the experiment with A549 [2] gave an inhibition of 1.7%. Also, the inhibition at 100 µM with A549 [3] is 97.1%; in the experiment with P388 [7], 99.9%. Besides, the figures for the inhibition at 10 µM in the experiment on A549 [4] and in the experiment on P388 [8] were 28.8% and 92.8%, respectively. In the experiment on A549 [5], this compound registered an inhibition at 1 µM of 35.5%.
On to `Cc1ccc(S(=O)(=O)n2cc(-c3cc(C(F)(F)F)c(C#N)c(-c4cn(S(=O)(=O)c5ccc(C)cc5)c5ccc(Br)cc45)n3)c3cc(Br)ccc32)cc1`, for which the IC50 in the experiment with A549 [1] is 78 µM; in the experiment with P388 [6], > 100 µM. In the experiment with A549 [2], this compound showed an inhibition at 0.1 µM of 9.8%. For the same compound, the inhibition at 100 µM stood at 70.6% in the experiment on A549 [3] and 8.2% in the experiment with P388 [7]. In the experiment on A549 [4], this compound registered an inhibition at 10 µM of 9.6%. Moreover, the inhibition at 1 µM was 17.4% in the experiment with A549 [5] and 3.7% in the experiment on P388 [9].
As to `Cc1ccc(S(=O)(=O)n2cc(-c3cc(C(F)(F)F)ccn3)c3ccccc32)cc1`, the figures for the IC50 with A549 [1] and with P388 [6] were 25 µM and > 100 µM, respectively. Besides, the inhibition at 0.1 µM in the experiment on A549 [2] is 25%. The inhibition at 100 µM in the experiment with A549 [3] worked out at 68.4%; in the experiment on P388 [7] it was 49.9%. For the same compound, the inhibition at 10 µM in the experiment with A549 [4] amounted to 35%. Moreover, the inhibition at 1 µM in the experiment with A549 [5] stood at 23.8%; in the experiment with P388 [9] it was 10.5%.
With `Cc1ccc(S(=O)(=O)n2cc(-c3cc(C(F)(F)F)c(C#N)c(-c4cn(S(=O)(=O)c5ccc(C)cc5)c5cc(Br)ccc45)n3)c3ccc(Br)cc32)cc1`, the IC50 in the experiment on A549 [1] and in the experiment on P388 [6] was > 100 µM each time. In addition, the inhibition at 0.1 µM in the experiment with A549 [2] came to 23.8%; in the experiment on P388 [10], 3.1%. Also, the figures for the inhibition at 100 µM with A549 [3] and in the experiment with P388 [7] were 48.1% and 1.3%, respectively. For the same compound, the results for the inhibition at 10 µM with A549 [4] and in the experiment with P388 [8] were 27.6% and 5.7%, respectively. Besides, the inhibition at 1 µM in the experiment on A549 [5] amounted to 18.8%; with P388 [9], 1.7%.
Turning to `Cc1ccc(S(=O)(=O)n2cc(-c3cc(C(F)(F)F)ccn3)c3cc(Br)ccc32)cc1`, the IC50 was 4.1 µM in the experiment on A549 [1] and > 100 µM with P388 [6]. Further, the inhibition at 0.1 µM turned out to be 38.9% in the experiment with A549 [2] and 9.7% with P388 [10]. For the same compound, the figures for the inhibition at 100 µM with A549 [3] and in the experiment on P388 [7] were 98% and 32.6%, respectively. Further, the inhibition at 10 µM amounted to 20.6% in the experiment with A549 [4] and 21.9% in the experiment with P388 [8]. Further, the values for the inhibition at 1 µM in the experiment on A549 [5] and with P388 [9] were 32.8% and 17.8%, respectively.
In the case of `Cc1ccc(S(=O)(=O)n2cc(-c3cc(C(F)(F)F)cc(-c4cn(S(=O)(=O)c5ccc(C)cc5)c5cc(Br)ccc45)n3)c3ccc(Br)cc32)cc1`, the IC50 with A549 [1] and with P388 [6] was > 100 µM each time. For the same compound, the inhibition at 0.1 µM with A549 [2] came out at 25.8%; with P388 [10], 8.1%. The inhibition at 100 µM in the experiment with A549 [3] is 49.2%; in the experiment with P388 [7], 8.9%. Also, the inhibition at 10 µM with A549 [4] is 32%; in the experiment with P388 [8], 15.1%. Besides, the inhibition at 1 µM in the experiment on A549 [5] turned out to be 30.7%; in the experiment on P388 [9], 10%.
In the case of `COc1ccc2c(c1)c(-c1cc(C(F)(F)F)ccn1)cn2S(=O)(=O)c1ccc(C)cc1`, the IC50 in the experiment with A549 [1] and with P388 [6] was > 100 µM throughout. In the experiment on A549 [2], this compound displayed an inhibition at 0.1 µM of 16.9%. Moreover, the results for the inhibition at 100 µM in the experiment with A549 [3] and in the experiment on P388 [7] were 51.8% and 15.6%, respectively. In the experiment with A549 [4], this compound came in with an inhibition at 10 µM of 14.1%. The compound also yielded an inhibition at 1 µM in the experiment on A549 [5] of 23.2%.
For `COc1ccc2c(c1)c(-c1cc(C(F)(F)F)cc(-c3cn(S(=O)(=O)c4ccc(C)cc4)c4ccc(OC)cc34)n1)cn2S(=O)(=O)c1ccc(C)cc1`, the IC50 with A549 [1] and with P388 [6] was > 100 µM throughout. For the same compound, the inhibition at 0.1 µM in the experiment on A549 [2] was found to be 16.7%; with P388 [10] it was 9.3%. For the same compound, the figures for the inhibition at 100 µM in the experiment with A549 [3] and with P388 [7] were 41.7% and 13.8%, respectively. For the same compound, the inhibition at 10 µM in the experiment with A549 [4] came to 22.2%; with P388 [8] it was 5%. The inhibition at 1 µM in the experiment on A549 [5] is 7.1%; in the experiment with P388 [9], 7%.
`COc1ccc2c(-c3cc(C(F)(F)F)c(C#N)c(-c4cn(S(=O)(=O)c5ccc(C)cc5)c5cc(OC)ccc45)n3)cn(S(=O)(=O)c3ccc(C)cc3)c2c1`: the IC50 in the experiment on A549 [1] and in the experiment on P388 [6] was > 100 µM in each case. Besides, the values for the inhibition at 0.1 µM in the experiment on A549 [2] and with P388 [10] were 33% and 5.1%, respectively. The inhibition at 100 µM was found to be 21.2% in the experiment with A549 [3] and 3.8% with P388 [7]. The inhibition at 10 µM in the experiment on A549 [4] came out at 13.3%; in the experiment with P388 [8], 10.1%. For the same compound, the inhibition at 1 µM with A549 [5] came to 26.7%; in the experiment on P388 [9], 9.1%.
For the compound `Cc1ccc(S(=O)(=O)n2cc(-c3cc(C(F)(F)F)ccn3)c3cc(OCc4ccccc4)ccc32)cc1`, the IC50 with A549 [1] and in the experiment on P388 [6] was > 100 µM in each case. The compound further registered an inhibition at 0.1 µM with A549 [2] of 16.9%. The inhibition at 100 µM in the experiment with A549 [3] is 35.9%; with P388 [7] it was 2.2%. Testing at 10 µM with A549 [4] gave an inhibition of 9.9%. In addition, in the experiment on A549 [5], the inhibition at 1 µM is 23.2%.
For the compound `COc1ccc2c(c1)c(-c1cc(C(F)(F)F)c(C#N)c(-c3cn(S(=O)(=O)c4ccc(C)cc4)c4ccc(OC)cc34)n1)cn2S(=O)(=O)c1ccc(C)cc1`, the IC50 in the experiment on A549 [1] and in the experiment with P388 [6] was > 100 µM in each case. Besides, the inhibition at 0.1 µM in the experiment on A549 [2] came to 25%; in the experiment with P388 [10], 1.7%. In addition, the inhibition at 100 µM in the experiment with A549 [3] was 17.7%. The results for the inhibition at 10 µM in the experiment on A549 [4] and with P388 [8] were 25.2% and 3.5%, respectively. In addition, testing at 1 µM in the experiment with A549 [5] gave an inhibition of 24.4%.
`Cc1ccc(S(=O)(=O)n2cc(-c3cc(C(F)(F)F)cc(-c4cn(S(=O)(=O)c5ccc(C)cc5)c5ccccc45)n3)c3ccccc32)cc1`: the figures for the IC50 in the experiment on A549 [1] and with P388 [6] were 23 µM and > 100 µM, respectively. Besides, the inhibition at 0.1 µM in the experiment with A549 [2] was determined as 37.5%; in the experiment with P388 [10], 15.7%. The inhibition at 100 µM in the experiment on A549 [3] came to 69.3%; with P388 [7], 14.7%. The inhibition at 10 µM came to 27.6% with A549 [4] and 23.5% in the experiment on P388 [8]. Besides, the results for the inhibition at 1 µM in the experiment on A549 [5] and in the experiment with P388 [9] were 36.7% and 20.9%, respectively.
